Numbers after ± are expanded uncertainties.
Conditions: Liquid, Pulse Transmission

O [water]
Conditions	speed of sound [m/s]
267.88 K, 349500 kPa	1996.1 ± 3.2
267.89 K, 199900 kPa	1745.2 ± 2.6
273.01 K, 49300 kPa	1483.9 ± 2
273.02 K, 200500 kPa	1762.6 ± 2.6
273.03 K, 50300 kPa	1485.7 ± 2.5
273.05 K, 100 kPa	1399.3 ± 2
273.07 K, 49200 kPa	1484 ± 2
273.07 K, 499800 kPa	2214.4 ± 3.4
273.08 K, 200700 kPa	1763.5 ± 2.6
273.08 K, 300600 kPa	1930.8 ± 2.9
273.08 K, 399700 kPa	2080.1 ± 3.1
273.09 K, 100 kPa	1399.8 ± 2
273.09 K, 100000 kPa	1578.3 ± 2.3
273.09 K, 150200 kPa	1671.7 ± 2.5
273.09 K, 150400 kPa	1671.6 ± 2.5
273.09 K, 349400 kPa	2006.9 ± 3.2
273.1 K, 100 kPa	1398.7 ± 2
273.1 K, 100500 kPa	1579.6 ± 2.3
273.1 K, 250700 kPa	1849 ± 2.8
273.1 K, 350400 kPa	2009 ± 3.2
273.1 K, 450500 kPa	2150.3 ± 3.3
273.1 K, 500400 kPa	2215.2 ± 3.4
273.1 K, 550500 kPa	2281.3 ± 3.5
273.1 K, 602100 kPa	2345.3 ± 3.7
273.11 K, 200300 kPa	1762.7 ± 2.6
273.11 K, 250300 kPa	1848.4 ± 2.8
273.11 K, 250600 kPa	1848.7 ± 2.8
273.11 K, 299900 kPa	1929.5 ± 2.9
273.11 K, 550200 kPa	2281.4 ± 3.5
273.12 K, 300000 kPa	1929.7 ± 2.9
273.12 K, 399600 kPa	2079.5 ± 3.1
273.12 K, 401000 kPa	2081.2 ± 3.1
273.12 K, 449300 kPa	2149.5 ± 3.3
273.12 K, 450200 kPa	2149.8 ± 3.3
273.12 K, 550300 kPa	2276.8 ± 3.5
273.12 K, 599500 kPa	2342 ± 3.7
273.13 K, 150200 kPa	1672.1 ± 2.5
273.13 K, 349700 kPa	2007 ± 3.1
273.13 K, 499900 kPa	2214.6 ± 3.4
273.18 K, 99800 kPa	1577.5 ± 2.3
278.05 K, 100 kPa	1425.1 ± 2
278.05 K, 500300 kPa	2220.9 ± 3.4
278.07 K, 349300 kPa	2013.6 ± 3
278.08 K, 200300 kPa	1775.7 ± 2.6
278.08 K, 349600 kPa	2014.7 ± 3
278.08 K, 400000 kPa	2086.4 ± 3.1
278.08 K, 450900 kPa	2156.9 ± 3.3
278.08 K, 602100 kPa	2346.8 ± 3.7
278.09 K, 49200 kPa	1507.3 ± 2
278.09 K, 400000 kPa	2087.5 ± 3.1
278.09 K, 449700 kPa	2155.5 ± 3.4
278.09 K, 500500 kPa	2221.3 ± 3.4
278.09 K, 550800 kPa	2286.8 ± 3.6
278.09 K, 700200 kPa	2439.8 ± 4.9
278.1 K, 299900 kPa	1938.9 ± 2.9
278.1 K, 400500 kPa	2089.8 ± 3.2
278.1 K, 500400 kPa	2223.3 ± 3.4
278.11 K, 561500 kPa	2297.2 ± 3.6
278.11 K, 640200 kPa	2390.8 ± 3.8
278.12 K, 200800 kPa	1777.1 ± 2.6
278.12 K, 250200 kPa	1858.4 ± 2.8
278.12 K, 299900 kPa	1939.6 ± 2.9
278.12 K, 450800 kPa	2157.8 ± 3.4
278.12 K, 600700 kPa	2347.6 ± 3.7
278.12 K, 650000 kPa	2402.2 ± 3.8
278.13 K, 48300 kPa	1506 ± 2
278.13 K, 150100 kPa	1688.3 ± 2.4
278.13 K, 200100 kPa	1776.7 ± 2.6
278.13 K, 250100 kPa	1859.7 ± 2.8
278.13 K, 250600 kPa	1859.7 ± 2.8
278.13 K, 550600 kPa	2284.7 ± 3.5
278.14 K, 150100 kPa	1689.2 ± 2.4
278.15 K, 100 kPa	1424.8 ± 2
278.15 K, 99600 kPa	1597.6 ± 2.3
278.16 K, 99900 kPa	1599.9 ± 2.3
278.16 K, 300500 kPa	1940 ± 2.9
278.17 K, 349800 kPa	2017.6 ± 3
278.17 K, 599300 kPa	2344.6 ± 3.7
278.17 K, 651900 kPa	2402.7 ± 3.8
278.17 K, 701300 kPa	2451 ± 4.9
278.19 K, 109200 kPa	1614.9 ± 2.3
278.19 K, 159900 kPa	1705.3 ± 2.4
278.19 K, 700600 kPa	2446.5 ± 3.9
278.24 K, 100 kPa	1425.6 ± 2
288 K, 450300 kPa	2162.1 ± 3.3
288.07 K, 300700 kPa	1953.9 ± 2.9
288.07 K, 600900 kPa	2346.8 ± 3.7
288.08 K, 100 kPa	1463.4 ± 1.9
288.08 K, 50800 kPa	1549.6 ± 2
288.08 K, 149800 kPa	1717.5 ± 2.4
288.08 K, 250500 kPa	1878.9 ± 2.8
288.08 K, 350800 kPa	2026.4 ± 3
288.08 K, 400300 kPa	2094.6 ± 3.3
288.08 K, 699800 kPa	2453.6 ± 4
288.09 K, 50900 kPa	1549.8 ± 2
288.09 K, 110900 kPa	1650.2 ± 2.3
288.09 K, 160100 kPa	1733.4 ± 2.5
288.09 K, 349600 kPa	2026.1 ± 3
288.09 K, 599500 kPa	2345.8 ± 3.7
288.1 K, 499500 kPa	2226.5 ± 3.4
288.1 K, 499700 kPa	2225.7 ± 3.4
288.11 K, 100 kPa	1461.4 ± 2
288.11 K, 200800 kPa	1799.7 ± 2.6
288.11 K, 299800 kPa	1952.9 ± 2.9
288.11 K, 599900 kPa	2344.8 ± 3.7
288.11 K, 700800 kPa	2455.2 ± 4.1
288.12 K, 200300 kPa	1800.1 ± 2.6
288.12 K, 250000 kPa	1878.5 ± 2.7
288.12 K, 399800 kPa	2094.8 ± 3.3
288.13 K, 100 kPa	1462.4 ± 2

Source: the NIST ThermoML archive (doi:10.1021/je200668a)
